Test results published in PubChem BioAssay (NCI).
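Exposure lasted 48 hours, with cells grown in 96-well plates and compounds tested at five concentrations. TGI: total growth inhibition.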

What was measured:
Assay in all cases: NCI-60 cell line screen, 48 h
BT-549 breast = tested on: BT-549 breast
COLO 205 colon = tested on: COLO 205 colon
EKVX NSCLC = tested on: EKVX NSCLC
HL-60(TB) leukemia = tested on: HL-60(TB) leukemia
HS 578T breast = tested on: HS 578T breast
KM12 colon = tested on: KM12 colon
NCI-H522 lung = tested on: NCI-H522 lung
OVCAR-3 ovarian = tested on: OVCAR-3 ovarian
OVCAR-8 ovarian = tested on: OVCAR-8 ovarian
PC-3 prostate = tested on: PC-3 prostate
RXF 393 renal = tested on: RXF 393 renal
SF-268 CNS = tested on: SF-268 CNS
SK-MEL-28 melanoma = tested on: SK-MEL-28 melanoma
SN12C renal = tested on: SN12C renal
SNB-19 CNS = tested on: SNB-19 CNS
SNB-75 CNS = tested on: SNB-75 CNS

CC(=O)O[C@H]1[C@@H](OC2CCCC2(c2ccccc2)c2ccccc2)O[N+]([O-])=C[C@@H]1c1ccccc1 (some centres not stated)
TGI (BT-549 breast): 17.5 µM | TGI (COLO 205 colon): > 46 µM | TGI (EKVX NSCLC): 30.4 µM | TGI (HL-60(TB) leukemia): 5.71 µM | TGI (HS 578T breast): 20.5 µM | TGI (KM12 colon): 23.4 µM | TGI (NCI-H522 lung): 2.62 µM | TGI (OVCAR-3 ovarian): 21 µM | TGI (OVCAR-8 ovarian): 6.53 µM | TGI (PC-3 prostate): 21.2 µM | TGI (RXF 393 renal): 8.48 µM | TGI (SF-268 CNS): 13.4 µM | TGI (SK-MEL-28 melanoma): 8.65 µM | TGI (SN12C renal): 16.9 µM | TGI (SNB-19 CNS): 29.7 µM | TGI (SNB-75 CNS): 18 µM

CC(=O)n1nc(-c2[nH]c(C)c(-c3nn(C(C)=O)c(=S)o3)c2C)oc1=S
TGI (BT-549 breast): > 100 µM | TGI (COLO 205 colon): > 100 µM | TGI (EKVX NSCLC): > 100 µM | TGI (HL-60(TB) leukemia): > 100 µM | TGI (HS 578T breast): > 100 µM | TGI (KM12 colon): > 100 µM | TGI (NCI-H522 lung): > 100 µM | TGI (OVCAR-3 ovarian): > 100 µM | TGI (OVCAR-8 ovarian): > 100 µM | TGI (PC-3 prostate): > 100 µM | TGI (RXF 393 renal): > 100 µM | TGI (SF-268 CNS): > 100 µM | TGI (SK-MEL-28 melanoma): > 100 µM | TGI (SN12C renal): > 100 µM | TGI (SNB-19 CNS): > 100 µM | TGI (SNB-75 CNS): > 100 µM

COC(=O)C1=C(N)C2=C(N)Oc3ccccc3C2CC1=C(C#N)C#N (configuration not stated)
TGI (BT-549 breast): 58.2 µM | TGI (COLO 205 colon): 44.1 µM | TGI (EKVX NSCLC): 84.4 µM | TGI (HL-60(TB) leukemia): > 100 µM | TGI (HS 578T breast): 97.9 µM | TGI (KM12 colon): 29.5 µM | TGI (NCI-H522 lung): 40.7 µM | TGI (OVCAR-3 ovarian): > 100 µM | TGI (OVCAR-8 ovarian): 55.7 µM | TGI (PC-3 prostate): > 100 µM | TGI (RXF 393 renal): > 100 µM | TGI (SF-268 CNS): 89.4 µM | TGI (SN12C renal): 92.6 µM | TGI (SNB-19 CNS): 70.4 µM | TGI (SNB-75 CNS): 68.6 µM

O=C1NC(=Nc2ccccc2Cl)N/C1=C\c1c(Cl)cccc1Cl
TGI (BT-549 breast): > 100 µM | TGI (COLO 205 colon): 56.2 µM | TGI (EKVX NSCLC): 79.3 µM | TGI (HL-60(TB) leukemia): 54.2 µM | TGI (HS 578T breast): 99 µM | TGI (KM12 colon): > 100 µM | TGI (NCI-H522 lung): 58.7 µM | TGI (OVCAR-3 ovarian): > 100 µM | TGI (OVCAR-8 ovarian): > 100 µM | TGI (PC-3 prostate): 76.8 µM | TGI (RXF 393 renal): 68 µM | TGI (SF-268 CNS): > 100 µM | TGI (SK-MEL-28 melanoma): > 100 µM | TGI (SN12C renal): 84.6 µM | TGI (SNB-19 CNS): > 100 µM | TGI (SNB-75 CNS): 76.3 µM

NC(=S)NN=Cc1ccccc1OCc1cccc(COc2ccccc2C=NNC(N)=S)n1
TGI (BT-549 breast): 31 µM | TGI (COLO 205 colon): > 100 µM | TGI (EKVX NSCLC): > 50.6 µM | TGI (HL-60(TB) leukemia): > 100 µM | TGI (HS 578T breast): > 100 µM | TGI (KM12 colon): > 100 µM | TGI (NCI-H522 lung): > 100 µM | TGI (OVCAR-3 ovarian): > 100 µM | TGI (OVCAR-8 ovarian): > 100 µM | TGI (PC-3 prostate): > 100 µM | TGI (RXF 393 renal): 10.9 µM | TGI (SF-268 CNS): > 100 µM | TGI (SK-MEL-28 melanoma): > 100 µM | TGI (SN12C renal): > 100 µM | TGI (SNB-19 CNS): 46.3 µM | TGI (SNB-75 CNS): 5.62 µM

O=c1c2c3c(sc2nc2n1sc1nc4sc5c(c4c(=O)n12)CCCC5)CCCC3
TGI (BT-549 breast): 42.4 µM | TGI (COLO 205 colon): 64.7 µM | TGI (EKVX NSCLC): 27.8 µM | TGI (HL-60(TB) leukemia): 62.3 µM | TGI (HS 578T breast): > 100 µM | TGI (KM12 colon): > 100 µM | TGI (NCI-H522 lung): 31.1 µM | TGI (OVCAR-3 ovarian): > 62.5 µM | TGI (OVCAR-8 ovarian): > 100 µM | TGI (PC-3 prostate): > 100 µM | TGI (RXF 393 renal): 38.5 µM | TGI (SF-268 CNS): > 100 µM | TGI (SK-MEL-28 melanoma): > 100 µM | TGI (SN12C renal): > 100 µM | TGI (SNB-19 CNS): > 100 µM | TGI (SNB-75 CNS): > 32.8 µM

O=C(CNc1ccc([N+](=O)[O-])cc1)Nn1c(-c2ccccc2)nc2ccccc2c1=O
TGI (BT-549 breast): 4.25 µM | TGI (COLO 205 colon): 5.31 µM | TGI (EKVX NSCLC): 28.6 µM | TGI (HL-60(TB) leukemia): 14 µM | TGI (HS 578T breast): 8.22 µM | TGI (KM12 colon): 15.9 µM | TGI (NCI-H522 lung): 4.79 µM | TGI (OVCAR-3 ovarian): 20.4 µM | TGI (OVCAR-8 ovarian): 18 µM | TGI (PC-3 prostate): 13.2 µM | TGI (RXF 393 renal): 8.84 µM | TGI (SF-268 CNS): 16.4 µM | TGI (SK-MEL-28 melanoma): 10.8 µM | TGI (SN12C renal): 5.19 µM | TGI (SNB-19 CNS): 23.1 µM | TGI (SNB-75 CNS): 11.3 µM

COC(=O)CSc1cc(Cl)c(C)cc1S(=O)(=O)Nc1n[nH]c(N)n1
TGI (BT-549 breast): > 10 µM | TGI (COLO 205 colon): > 10 µM | TGI (EKVX NSCLC): > 10 µM | TGI (HL-60(TB) leukemia): > 10 µM | TGI (HS 578T breast): > 10 µM | TGI (KM12 colon): > 10 µM | TGI (NCI-H522 lung): > 10 µM | TGI (OVCAR-3 ovarian): > 10 µM | TGI (OVCAR-8 ovarian): > 10 µM | TGI (PC-3 prostate): > 10 µM | TGI (RXF 393 renal): > 10 µM | TGI (SF-268 CNS): > 10 µM | TGI (SK-MEL-28 melanoma): > 10 µM | TGI (SN12C renal): > 10 µM | TGI (SNB-19 CNS): > 10 µM | TGI (SNB-75 CNS): > 10 µM

CN(C)/C=N/c1cc(=O)n(C)c(=O)n1C
TGI (BT-549 breast): > 100 µM | TGI (COLO 205 colon): > 100 µM | TGI (EKVX NSCLC): > 100 µM | TGI (HL-60(TB) leukemia): > 100 µM | TGI (HS 578T breast): > 100 µM | TGI (KM12 colon): > 100 µM | TGI (NCI-H522 lung): > 100 µM | TGI (OVCAR-3 ovarian): > 100 µM | TGI (OVCAR-8 ovarian): > 100 µM | TGI (PC-3 prostate): > 100 µM | TGI (RXF 393 renal): > 100 µM | TGI (SF-268 CNS): > 100 µM | TGI (SK-MEL-28 melanoma): > 100 µM | TGI (SN12C renal): > 100 µM | TGI (SNB-19 CNS): > 100 µM | TGI (SNB-75 CNS): > 100 µM

O=C(Cc1csc2[n+]1C(=O)/C(=C/c1ccc(Cl)cc1)S2)Nc1ccccc1
TGI (BT-549 breast): 60.3 µM | TGI (COLO 205 colon): 30.2 µM | TGI (EKVX NSCLC): 53.4 µM | TGI (HL-60(TB) leukemia): 74.2 µM | TGI (HS 578T breast): > 100 µM | TGI (KM12 colon): 82.8 µM | TGI (NCI-H522 lung): 40.5 µM | TGI (OVCAR-3 ovarian): 27.7 µM | TGI (OVCAR-8 ovarian): > 100 µM | TGI (PC-3 prostate): 41.3 µM | TGI (RXF 393 renal): 42.6 µM | TGI (SF-268 CNS): 78 µM | TGI (SK-MEL-28 melanoma): > 100 µM | TGI (SN12C renal): > 100 µM | TGI (SNB-19 CNS): > 100 µM | TGI (SNB-75 CNS): 94.6 µM

CC(=O)OC[C@@]1(C)[C@@H]2[C@@H]3[C@@]4(CO[C@]3(C)C(=O)[C@@]3(OC(C)=O)C[C@H](C)[C@H](OC(C)=O)[C@@H]3[C@H]4OC(C)=O)[C@H](OC(=O)c3ccccc3)C[C@@H]21
TGI (BT-549 breast): > 100 µM | TGI (COLO 205 colon): > 100 µM | TGI (EKVX NSCLC): > 100 µM | TGI (HL-60(TB) leukemia): > 100 µM | TGI (HS 578T breast): > 100 µM | TGI (KM12 colon): > 100 µM | TGI (NCI-H522 lung): > 100 µM | TGI (OVCAR-3 ovarian): > 100 µM | TGI (OVCAR-8 ovarian): > 100 µM | TGI (PC-3 prostate): > 100 µM | TGI (RXF 393 renal): > 100 µM | TGI (SF-268 CNS): > 100 µM | TGI (SK-MEL-28 melanoma): > 100 µM | TGI (SN12C renal): > 100 µM | TGI (SNB-19 CNS): > 100 µM | TGI (SNB-75 CNS): > 100 µM

CC(C)=NC(C(=O)O)C(C)(C)S (configuration not stated)
TGI (BT-549 breast): > 100 µM | TGI (COLO 205 colon): > 100 µM | TGI (EKVX NSCLC): > 100 µM | TGI (HL-60(TB) leukemia): > 100 µM | TGI (HS 578T breast): > 100 µM | TGI (KM12 colon): > 100 µM | TGI (NCI-H522 lung): > 100 µM | TGI (OVCAR-3 ovarian): > 100 µM | TGI (OVCAR-8 ovarian): > 100 µM | TGI (PC-3 prostate): > 100 µM | TGI (RXF 393 renal): > 100 µM | TGI (SF-268 CNS): > 100 µM | TGI (SK-MEL-28 melanoma): > 100 µM | TGI (SN12C renal): > 100 µM | TGI (SNB-19 CNS): > 100 µM | TGI (SNB-75 CNS): > 100 µM

Cc1cc2c(cc1Cl)SC(NNC(=O)c1ccccc1)=NS2(=O)=O
TGI (BT-549 breast): > 10 µM | TGI (COLO 205 colon): > 10 µM | TGI (EKVX NSCLC): > 10 µM | TGI (HL-60(TB) leukemia): > 10 µM | TGI (HS 578T breast): > 10 µM | TGI (KM12 colon): > 10 µM | TGI (NCI-H522 lung): > 10 µM | TGI (OVCAR-3 ovarian): > 10 µM | TGI (OVCAR-8 ovarian): > 10 µM | TGI (PC-3 prostate): > 10 µM | TGI (RXF 393 renal): > 10 µM | TGI (SF-268 CNS): > 10 µM | TGI (SK-MEL-28 melanoma): > 10 µM | TGI (SN12C renal): > 10 µM | TGI (SNB-19 CNS): > 10 µM | TGI (SNB-75 CNS): > 10 µM
